Reference: ChEMBL document CHEMBL1201862, “PubChem BioAssay data set” (2004)
Active and inactive are the calls of the source.

What was measured:
[1] = target: Intestinal-type alkaline phosphatase (Mus musculus, UniProt P24822); assay: PubChem AID 488785; format: functional
[2] = target: Voltage-gated N-type calcium channel alpha-1B subunit/Amyloid beta A4 precursor protein-binding family A member 1 (Homo sapiens, UniProt Q00975+Q02410); format: protein assay
ORF 73 = target: T1, ORF 73 (Human herpesvirus 8, UniProt O40947); assay: KSHV LANA DNA-binding disruption – biochemical, fluorescence polarization, cherry-picked samples, dose response (AID 504725); parameters: species or system Human gammaherpesvirus 8;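 note: fluorescence polarization of a labeled DNA duplex reporting LANA DNA binding; potency is for inhibitors that block LANA binding to the DNA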
T1 sequence (O40947 whole entry): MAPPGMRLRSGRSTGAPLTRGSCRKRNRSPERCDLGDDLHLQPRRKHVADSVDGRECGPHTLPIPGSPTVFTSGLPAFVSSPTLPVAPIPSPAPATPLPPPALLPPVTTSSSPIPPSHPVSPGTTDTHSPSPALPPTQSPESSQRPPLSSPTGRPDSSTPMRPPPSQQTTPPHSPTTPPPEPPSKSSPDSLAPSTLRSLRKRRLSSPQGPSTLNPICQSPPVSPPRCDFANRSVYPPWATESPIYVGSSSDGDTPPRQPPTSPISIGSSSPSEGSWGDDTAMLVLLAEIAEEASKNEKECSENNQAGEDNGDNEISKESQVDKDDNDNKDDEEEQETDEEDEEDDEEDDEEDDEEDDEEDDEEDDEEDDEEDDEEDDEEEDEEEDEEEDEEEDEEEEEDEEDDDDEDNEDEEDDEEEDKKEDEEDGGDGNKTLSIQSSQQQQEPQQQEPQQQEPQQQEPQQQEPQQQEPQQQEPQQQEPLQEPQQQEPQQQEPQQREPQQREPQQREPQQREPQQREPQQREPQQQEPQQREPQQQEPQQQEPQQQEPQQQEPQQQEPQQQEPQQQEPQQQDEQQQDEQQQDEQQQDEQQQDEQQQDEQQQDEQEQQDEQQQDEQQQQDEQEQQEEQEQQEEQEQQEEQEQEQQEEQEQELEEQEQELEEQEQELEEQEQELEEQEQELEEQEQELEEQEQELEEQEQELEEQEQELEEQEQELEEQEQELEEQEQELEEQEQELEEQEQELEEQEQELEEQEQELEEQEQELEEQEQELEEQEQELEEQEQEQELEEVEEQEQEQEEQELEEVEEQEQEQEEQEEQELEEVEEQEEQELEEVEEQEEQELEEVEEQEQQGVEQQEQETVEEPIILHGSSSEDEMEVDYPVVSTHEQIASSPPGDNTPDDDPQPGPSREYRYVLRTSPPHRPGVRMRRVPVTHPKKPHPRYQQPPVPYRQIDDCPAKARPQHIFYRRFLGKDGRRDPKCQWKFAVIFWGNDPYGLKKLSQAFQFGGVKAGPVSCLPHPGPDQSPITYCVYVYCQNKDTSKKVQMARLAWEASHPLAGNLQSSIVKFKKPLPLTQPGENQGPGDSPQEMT

[3] = target: T2, Dual specificity protein phosphatase 6 (Rattus norvegicus, UniProt Q64346);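 note: in vitro confirmatory secondary MKP-3 assay designed to detect irreversible or slow-binding inhibitors; recombinant His-tagged rat MKP-3 acting on the substrate OMFP; inhibitor potency from reduced phosphatase rate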
T2 sequence (Q64346 whole entry): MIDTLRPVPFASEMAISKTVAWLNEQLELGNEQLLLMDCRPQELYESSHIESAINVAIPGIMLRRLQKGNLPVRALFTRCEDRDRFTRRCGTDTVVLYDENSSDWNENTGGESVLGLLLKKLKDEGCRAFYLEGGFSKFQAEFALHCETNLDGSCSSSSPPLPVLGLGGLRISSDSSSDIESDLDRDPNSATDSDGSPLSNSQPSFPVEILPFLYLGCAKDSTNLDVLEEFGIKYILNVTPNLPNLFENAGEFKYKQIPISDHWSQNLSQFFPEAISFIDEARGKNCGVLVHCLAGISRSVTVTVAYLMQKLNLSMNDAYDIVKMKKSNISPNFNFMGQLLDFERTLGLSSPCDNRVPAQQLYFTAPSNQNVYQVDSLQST

[4] = target: T3, Ubiquitin-conjugating enzyme E2 N (Homo sapiens, UniProt P61088); format: functional
T3 sequence (P61088 whole entry): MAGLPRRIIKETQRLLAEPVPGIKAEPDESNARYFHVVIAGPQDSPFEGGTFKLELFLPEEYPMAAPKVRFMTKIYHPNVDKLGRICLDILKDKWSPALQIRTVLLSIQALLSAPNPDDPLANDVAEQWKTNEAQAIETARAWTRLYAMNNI

[5] = target: T4, Tyrosine-protein phosphatase non-receptor type 7 (Homo sapiens, UniProt P35236); format: functional
T4 sequence (P35236 whole entry): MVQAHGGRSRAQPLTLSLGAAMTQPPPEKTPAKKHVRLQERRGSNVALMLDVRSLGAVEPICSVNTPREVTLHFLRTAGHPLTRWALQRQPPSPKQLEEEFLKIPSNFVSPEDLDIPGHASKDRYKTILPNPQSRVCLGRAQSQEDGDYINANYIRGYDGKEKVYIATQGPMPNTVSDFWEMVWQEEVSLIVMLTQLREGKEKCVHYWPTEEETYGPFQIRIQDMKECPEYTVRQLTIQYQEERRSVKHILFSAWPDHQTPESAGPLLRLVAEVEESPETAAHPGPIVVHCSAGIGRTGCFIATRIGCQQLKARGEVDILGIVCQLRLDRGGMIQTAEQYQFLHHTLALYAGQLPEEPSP

[6] = target: Runt-related transcription factor 1/Core-binding factor subunit beta (Homo sapiens, UniProt Q01196+Q13951); assay: disruptors of Runt domain/CBFb-SMMHC interaction – biochemical, FRET, Cerulean-Runt, Venus-CBFb-SMMHC, uHTS, […] (AID 1434); format: protein assay;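 note: partner is the CBFb-SMMHC leukemia fusion protein rather than wild-type CBFb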
[7] = target: Fibroblast growth factor receptor 1 (Homo sapiens, UniProt P11362); format: functional
[8] = target: Macrophage-stimulating protein receptor (Homo sapiens, UniProt Q04912); assay: Navigating the Kinome. Panel member name: MST1R; format: functional
[9] = target: C-C chemokine receptor type 6 (Homo sapiens, UniProt P51684); assay: antagonism of CCR6 beta-arrestin recruitment – cell-based, luminescent beta-arrestin readout, dose response (AID 504728); format: functional
[10] = target: Mitogen-activated protein kinase 13 (Homo sapiens, UniProt O15264); format: functional
[11] = target: Cyclin-dependent kinase 2 (Homo sapiens, UniProt P24941); format: functional;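 note: CDK2 measured as one member of a broad kinome profiling panel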
[12] = target: Mitogen-activated protein kinase kinase kinase kinase 5 (Homo sapiens, UniProt Q9Y4K4); format: functional;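 note: measured as one member of a kinome-spanning kinase panel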
[13] = target: Serine/threonine-protein kinase 17A (Homo sapiens, UniProt Q9UEE5); format: functional
Ephrin type-A receptor 2 = Ephrin type-A receptor 2 (Homo sapiens, UniProt P29317); format: functional;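 note: EPHA2 tested as one member of a kinome-wide kinase panel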
[14] = target: Protein-tyrosine kinase 2-beta (Homo sapiens, UniProt Q14289); format: functional
[15] = target: Serine/threonine-protein kinase SIK2 (Homo sapiens, UniProt Q9H0K1); assay: Navigating the Kinome. Panel member name: SIK2; format: functional

Sequence of Ephrin type-A receptor 2 (P29317 whole entry): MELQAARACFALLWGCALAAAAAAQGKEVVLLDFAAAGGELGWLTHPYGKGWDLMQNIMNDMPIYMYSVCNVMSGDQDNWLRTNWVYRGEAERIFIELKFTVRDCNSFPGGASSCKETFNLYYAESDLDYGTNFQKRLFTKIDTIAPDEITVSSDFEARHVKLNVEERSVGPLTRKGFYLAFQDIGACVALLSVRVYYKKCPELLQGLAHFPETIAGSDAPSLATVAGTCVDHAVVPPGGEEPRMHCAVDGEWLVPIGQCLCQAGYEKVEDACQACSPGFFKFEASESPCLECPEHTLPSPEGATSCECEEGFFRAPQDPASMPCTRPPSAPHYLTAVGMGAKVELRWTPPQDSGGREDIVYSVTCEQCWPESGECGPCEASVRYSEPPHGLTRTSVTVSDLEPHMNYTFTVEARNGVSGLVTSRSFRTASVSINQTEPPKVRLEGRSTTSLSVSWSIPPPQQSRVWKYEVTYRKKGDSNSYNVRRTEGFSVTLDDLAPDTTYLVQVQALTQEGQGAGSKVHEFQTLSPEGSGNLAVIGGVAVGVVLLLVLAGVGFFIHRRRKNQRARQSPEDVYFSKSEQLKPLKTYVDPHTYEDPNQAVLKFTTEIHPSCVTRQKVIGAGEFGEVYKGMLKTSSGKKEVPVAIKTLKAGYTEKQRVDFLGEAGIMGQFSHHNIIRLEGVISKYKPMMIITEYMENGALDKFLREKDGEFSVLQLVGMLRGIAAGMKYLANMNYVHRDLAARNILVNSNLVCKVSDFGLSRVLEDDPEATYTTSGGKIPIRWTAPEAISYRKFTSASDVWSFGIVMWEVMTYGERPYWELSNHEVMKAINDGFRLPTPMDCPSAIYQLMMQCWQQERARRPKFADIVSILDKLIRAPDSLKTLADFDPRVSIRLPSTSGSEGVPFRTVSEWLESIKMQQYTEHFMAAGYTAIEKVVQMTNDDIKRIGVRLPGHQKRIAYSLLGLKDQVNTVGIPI
Sequence of Intestinal-type alkaline phosphatase (P24822 whole entry): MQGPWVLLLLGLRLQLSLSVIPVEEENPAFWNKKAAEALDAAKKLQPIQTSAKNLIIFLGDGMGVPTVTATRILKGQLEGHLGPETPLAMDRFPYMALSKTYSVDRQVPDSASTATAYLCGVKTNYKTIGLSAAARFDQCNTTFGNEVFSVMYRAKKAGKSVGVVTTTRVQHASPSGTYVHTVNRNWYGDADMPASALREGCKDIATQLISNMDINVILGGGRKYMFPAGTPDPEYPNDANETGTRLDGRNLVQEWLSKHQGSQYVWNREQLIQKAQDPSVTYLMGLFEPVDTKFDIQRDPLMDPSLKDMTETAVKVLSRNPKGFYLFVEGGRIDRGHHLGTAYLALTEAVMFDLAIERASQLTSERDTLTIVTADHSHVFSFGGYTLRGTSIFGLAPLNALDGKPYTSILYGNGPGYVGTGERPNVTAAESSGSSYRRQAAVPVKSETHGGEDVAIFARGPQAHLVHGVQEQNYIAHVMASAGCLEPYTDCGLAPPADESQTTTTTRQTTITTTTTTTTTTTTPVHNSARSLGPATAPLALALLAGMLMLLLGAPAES
Sequence of C-C chemokine receptor type 6 (P51684 whole entry): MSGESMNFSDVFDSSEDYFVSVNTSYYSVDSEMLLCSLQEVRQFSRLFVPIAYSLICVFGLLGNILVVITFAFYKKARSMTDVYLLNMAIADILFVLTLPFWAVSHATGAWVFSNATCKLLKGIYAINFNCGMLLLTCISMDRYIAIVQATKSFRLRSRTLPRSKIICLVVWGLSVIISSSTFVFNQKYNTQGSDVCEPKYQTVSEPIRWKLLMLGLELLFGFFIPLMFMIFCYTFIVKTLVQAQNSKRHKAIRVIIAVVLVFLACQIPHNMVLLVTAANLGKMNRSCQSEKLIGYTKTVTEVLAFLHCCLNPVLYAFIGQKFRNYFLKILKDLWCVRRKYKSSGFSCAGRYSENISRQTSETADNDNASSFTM
Sequence of Voltage-gated N-type calcium channel alpha-1B subunit/Amyloid beta A4 precursor protein-binding family A member 1 (Q00975 whole entry): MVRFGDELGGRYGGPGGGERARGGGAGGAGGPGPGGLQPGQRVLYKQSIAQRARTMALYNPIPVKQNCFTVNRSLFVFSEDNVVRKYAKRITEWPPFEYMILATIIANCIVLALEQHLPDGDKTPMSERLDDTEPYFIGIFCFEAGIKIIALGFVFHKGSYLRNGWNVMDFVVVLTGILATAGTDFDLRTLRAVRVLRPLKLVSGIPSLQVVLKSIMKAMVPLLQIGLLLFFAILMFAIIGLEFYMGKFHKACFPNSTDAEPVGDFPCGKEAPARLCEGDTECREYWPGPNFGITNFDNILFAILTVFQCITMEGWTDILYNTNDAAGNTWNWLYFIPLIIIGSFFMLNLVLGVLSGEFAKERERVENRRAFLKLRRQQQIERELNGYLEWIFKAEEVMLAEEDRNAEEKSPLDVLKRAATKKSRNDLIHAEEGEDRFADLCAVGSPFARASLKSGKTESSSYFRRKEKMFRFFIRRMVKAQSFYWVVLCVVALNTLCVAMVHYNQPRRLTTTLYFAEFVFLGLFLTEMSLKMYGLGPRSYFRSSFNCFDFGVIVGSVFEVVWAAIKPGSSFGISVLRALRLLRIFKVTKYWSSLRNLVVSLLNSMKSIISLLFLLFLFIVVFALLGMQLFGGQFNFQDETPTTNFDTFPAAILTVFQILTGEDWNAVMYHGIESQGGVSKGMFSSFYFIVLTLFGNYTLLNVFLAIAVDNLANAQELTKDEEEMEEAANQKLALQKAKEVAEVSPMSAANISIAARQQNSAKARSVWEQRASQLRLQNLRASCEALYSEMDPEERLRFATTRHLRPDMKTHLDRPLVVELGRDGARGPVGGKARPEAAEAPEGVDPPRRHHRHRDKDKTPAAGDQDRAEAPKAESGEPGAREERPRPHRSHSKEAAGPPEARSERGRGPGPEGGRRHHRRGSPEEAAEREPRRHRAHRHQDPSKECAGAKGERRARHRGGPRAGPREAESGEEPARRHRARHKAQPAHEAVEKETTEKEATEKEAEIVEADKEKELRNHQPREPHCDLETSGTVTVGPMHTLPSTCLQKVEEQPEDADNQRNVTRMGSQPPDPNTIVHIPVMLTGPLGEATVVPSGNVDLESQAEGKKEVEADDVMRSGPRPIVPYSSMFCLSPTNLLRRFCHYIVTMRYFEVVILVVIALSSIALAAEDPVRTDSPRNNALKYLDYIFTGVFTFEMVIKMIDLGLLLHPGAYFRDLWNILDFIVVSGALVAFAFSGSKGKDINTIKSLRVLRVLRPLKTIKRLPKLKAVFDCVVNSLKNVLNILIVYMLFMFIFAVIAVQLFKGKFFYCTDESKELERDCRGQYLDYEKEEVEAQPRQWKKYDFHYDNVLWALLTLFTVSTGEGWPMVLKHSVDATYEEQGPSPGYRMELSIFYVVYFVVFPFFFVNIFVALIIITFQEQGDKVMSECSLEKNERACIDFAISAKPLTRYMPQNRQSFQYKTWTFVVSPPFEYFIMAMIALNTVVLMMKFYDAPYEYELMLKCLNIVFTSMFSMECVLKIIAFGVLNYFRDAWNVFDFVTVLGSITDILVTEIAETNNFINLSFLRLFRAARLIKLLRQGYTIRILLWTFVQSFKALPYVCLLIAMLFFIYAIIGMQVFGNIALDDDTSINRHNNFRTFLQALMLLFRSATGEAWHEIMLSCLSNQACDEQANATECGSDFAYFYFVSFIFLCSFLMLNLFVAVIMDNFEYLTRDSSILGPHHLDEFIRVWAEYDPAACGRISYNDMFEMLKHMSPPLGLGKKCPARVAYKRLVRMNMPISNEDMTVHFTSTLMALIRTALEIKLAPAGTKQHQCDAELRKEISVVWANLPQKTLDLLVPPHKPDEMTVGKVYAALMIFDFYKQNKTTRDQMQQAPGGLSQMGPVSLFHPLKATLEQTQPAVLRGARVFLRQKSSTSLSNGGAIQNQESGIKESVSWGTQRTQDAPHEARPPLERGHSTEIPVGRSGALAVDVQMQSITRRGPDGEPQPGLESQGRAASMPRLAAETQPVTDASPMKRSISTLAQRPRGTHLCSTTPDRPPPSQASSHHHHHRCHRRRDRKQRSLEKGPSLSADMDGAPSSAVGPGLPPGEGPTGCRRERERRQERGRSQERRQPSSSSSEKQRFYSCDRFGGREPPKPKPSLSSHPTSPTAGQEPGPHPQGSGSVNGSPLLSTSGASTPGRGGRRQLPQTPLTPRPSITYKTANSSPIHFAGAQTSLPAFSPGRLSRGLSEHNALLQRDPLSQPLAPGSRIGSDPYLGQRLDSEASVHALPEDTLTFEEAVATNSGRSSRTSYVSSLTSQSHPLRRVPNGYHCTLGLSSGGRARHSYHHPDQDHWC
Sequence of Voltage-gated N-type calcium channel alpha-1B subunit/Amyloid beta A4 precursor protein-binding family A member 1 (Q02410 whole entry): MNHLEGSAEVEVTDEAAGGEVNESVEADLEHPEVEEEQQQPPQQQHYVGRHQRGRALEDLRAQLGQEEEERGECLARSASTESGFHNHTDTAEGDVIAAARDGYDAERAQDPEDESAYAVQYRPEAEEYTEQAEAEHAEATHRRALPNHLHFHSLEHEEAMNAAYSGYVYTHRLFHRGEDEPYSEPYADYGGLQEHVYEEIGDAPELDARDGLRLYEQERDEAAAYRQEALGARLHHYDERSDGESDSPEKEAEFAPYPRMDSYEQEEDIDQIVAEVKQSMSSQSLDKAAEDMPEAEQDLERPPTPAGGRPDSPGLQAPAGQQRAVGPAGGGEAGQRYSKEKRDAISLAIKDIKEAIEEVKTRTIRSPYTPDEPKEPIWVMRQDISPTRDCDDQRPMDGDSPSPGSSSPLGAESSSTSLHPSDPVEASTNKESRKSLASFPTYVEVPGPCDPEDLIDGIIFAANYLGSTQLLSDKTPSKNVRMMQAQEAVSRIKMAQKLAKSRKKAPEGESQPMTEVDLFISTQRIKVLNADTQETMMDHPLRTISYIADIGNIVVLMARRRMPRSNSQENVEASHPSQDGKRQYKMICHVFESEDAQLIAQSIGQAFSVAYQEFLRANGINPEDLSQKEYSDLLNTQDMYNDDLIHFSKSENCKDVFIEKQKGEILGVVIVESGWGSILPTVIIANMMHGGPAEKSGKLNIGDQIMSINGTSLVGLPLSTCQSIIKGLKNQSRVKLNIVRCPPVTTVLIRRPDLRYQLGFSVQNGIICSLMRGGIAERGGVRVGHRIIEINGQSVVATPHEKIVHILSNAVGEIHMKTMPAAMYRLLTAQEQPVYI

With `O=C1/C(=C\c2cccc(O)c2O)SC(=S)N1Cc1ccccc1` the IC50 [1] was 3.23 µM (active).

For `COc1cccc2c1NC(C(=O)O)C1CC=CC21` (configuration not stated), the IC50 [2] was 4.46 µM (active), the AC50 (ORF 73) was 35.8 µM (active) and the IC50 [3] was 14 µM (active). For the same compound, the IC50 [4] was > 20 µM (inactive), the IC50 [5] was 11.3 µM (active) and the IC50 [6] was > 100 µM (inactive).

In the case of `COc1c(-c2nc3ccccc3[nH]2)c(O)cc2oc(C)cc(=O)c12`, the Ki [7] is reported as 0.501 µM (active) and the Ki [8] is reported as 1.58 µM (active).

With `CCc1ccc(S(=O)(=O)/N=C2\C=C(Nc3ccc(O)cc3)C(=O)c3ccccc32)cc1` the IC50 [9] was > 66.6 µM (inactive).

With `Cc1ccc(F)c(NC(=O)Nc2ccc(-c3cccc4[nH]nc(N)c34)cc2)c1` [LINIFANIB] the Ki [10] was 2.51 µM (active), the Ki [11] was > 7.94 µM (inactive) and the Ki [12] was 0.316 µM (active). For the same compound, the Ki [13] was > 3.98 µM (inactive), the Ki (Ephrin type-A receptor 2) was 2.51 µM (active) and the Ki [14] was > 1.58 µM (inactive). The Ki [15] was > 3.98 µM (inactive).
